In publication PMC6856039 (Investigational New Drugs, 2019):
“Also recorded” adds a separate entry of the source.

Test system: Japanese patients with advanced EGFR mutation-positive NSCLC
Test: Phase I study: dose-limiting toxicities, adverse drug reactions, tolerability
Type: in vivo, human
Conditions: for patients who presented a DLT: Cycle 1 of dose escalation phase; for maximum tolerated dose (MTD): dose escalation phase
Method: This was an open-label, non-randomized, dose escalation phase I study conducted between December 14, 2015 and July 7, 2016 at 12 centers in Japan. The study was conducted in three phases (dose escalation phase, expansion phase, and extension phase), and the design is shown in Supplementary Fig. 1 (Online Resource 1). […] In patients who received the BID regimen, the administration interval was ≥10 h.
The first phase was the dose escalation phase conducted according to a 3 + 3 design, with a minimum of three patients treated at each dose level. […] The dosing rationale was derived from a 4-weeks repeated oral-dose toxicology study in monkeys. […] If none of the initial three patients treated within a dose level experienced a dose-limiting toxicity (DLT) during Cycle 1, the dose was escalated to the next level. […] If none of the three additional patients experienced DLTs after all of them completed Cycle 1, the dose was escalated to the next level. If at least one of the additional three patients developed a DLT, then the dose escalation was stopped and at least six evaluable patients were enrolled at the previous dose level to establish the maximum tolerated dose (MTD). The maximum dose level was defined as Dose Level 9 (150 mg/day). Based on safety and PK results, the dosing schedule could be changed to a BID regimen.
AEs were evaluated and graded according to the National Cancer Institute Common Terminology Criteria for Adverse Events Version 4.03. DLTs were also evaluated and defined as hematologic toxicity (Grade 4 neutropenia lasting >7 days, Grade 4 thrombocytopenia or Grade 3 thrombocytopenia associated with bleeding and requiring blood transfusion, or febrile neutropenia) or non-hematologic toxicity (Grade ≥3 nausea/vomiting uncontrolled by aggressive antiemetic treatment, Grade ≥3 diarrhea lasting >48 h and unresponsive to treatment, Grade ≥3 aspartate aminotransferase/alanine aminotransferase lasting >7 days, corneal disorder worsening by ≥1 grade, or Grade ≥3 other non-hematological toxicity).

## C=CC(=O)N[C@H]1CCc2c(-c3cnc4ccccc4c3)c3c(N)ncnc3n2C1 [TAS-121]
12 mg/day BID, N = 5
  Urticaria, ≥G3: 0 n
  Venous thromboembolism, any grade: 0 n
  Venous thromboembolism, ≥G3: 0 n
  Vomiting, ≥G3: 0 n
  WBC decreased, any grade: 0 n
  WBC decreased, ≥G3: 0 n
12 mg/day QD, N = 3
  ALT increased, ≥G3: 0 n
  AST increased, ≥G3: 0 n
  Decreased appetite, ≥G3: 0 n
  Diarrhea, ≥G3: 0 n
  Dry skin, ≥G3: 0 n
  Embolic and thrombotic events, any grade: 2 n
  Hemoglobin decreased, any grade: 0 n
  Hemoglobin decreased, ≥G3: 0 n
  Hypoalbuminemia, any grade: 0 n
  Hypoalbuminemia, ≥G3: 0 n
  Interstitial lung disease, any grade: 0 n
  Interstitial lung disease, ≥G3: 0 n
  Malaise, ≥G3: 0 n
  Nausea, any grade: 2 n
  Nausea, ≥G3: 0 n
  Other embolic and thrombotic events, any grade: 2 n
  Other embolic and thrombotic events, ≥G3: 0 n
  Platelet count decreased, any grade: 2 n
  Pruritus, any grade: 0 n
  Pruritus, ≥G3: 0 n
  Pyrexia, ≥G3: 0 n
  Rash maculo-papular, any grade: 1 n
  Rash maculo-papular, ≥G3: 0 n
  Rash, any grade: 0 n
  Rash, ≥G3: 0 n
  Stomatitis, ≥G3: 0 n
  Urticaria, any grade: 2 n
  Urticaria, ≥G3: 1 n
  Vomiting, ≥G3: 0 n
  WBC decreased, any grade: 0 n
  WBC decreased, ≥G3: 0 n
16 mg/day QD, N = 3
  ALT increased, any grade: 0 n
  ALT increased, ≥G3: 0 n
  AST increased, any grade: 0 n
  AST increased, ≥G3: 0 n
  Decreased appetite, ≥G3: 0 n
  Diarrhea, any grade: 2 n
  Diarrhea, ≥G3: 1 n
  Dry skin, any grade: 0 n
  Dry skin, ≥G3: 0 n
  Embolic and thrombotic events, any grade: 1 n
  Hemoglobin decreased, any grade: 1 n
  Hemoglobin decreased, ≥G3: 0 n
  Hypoalbuminemia, any grade: 0 n
  Hypoalbuminemia, ≥G3: 0 n
  Interstitial lung disease, ≥G3: 1 n
  Malaise, any grade: 0 n
  Malaise, ≥G3: 0 n
  Nausea, any grade: 1 n
  Nausea, ≥G3: 0 n
  Other embolic and thrombotic events, any grade: 0 n
  Other embolic and thrombotic events, ≥G3: 0 n
  Pruritus, ≥G3: 0 n
  Pyrexia, ≥G3: 0 n
  Rash maculo-papular, any grade: 1 n
  Rash maculo-papular, ≥G3: 0 n
  Rash, any grade: 0 n
  Rash, ≥G3: 0 n
  Stomatitis, ≥G3: 0 n
  Urticaria, any grade: 1 n
  Urticaria, ≥G3: 1 n
  Vomiting, ≥G3: 0 n
  WBC decreased, any grade: 2 n
  WBC decreased, ≥G3: 0 n
BID 8 mg/day
  DLT: Interstitial lung disease^a
BID 8 mg/day, 6 DLT evaluable patients
  Number of patients who experienced a DLT: 1
BID 12 mg/day
  DLT: Interstitial lung disease^a; also recorded: Platelet count decreased; also recorded: Left ventricular failure
BID 12 mg/day, 5 DLT evaluable patients
  Number of patients who experienced a DLT: 2
BID regimen
  patients who presented a DLT: three
  maximum tolerated dose (MTD): 8 mg/day
QD 4 mg/day, 3 DLT evaluable patients
  Number of patients who experienced a DLT: 0
QD 8 mg/day, 6 DLT evaluable patients
  Number of patients who experienced a DLT: 0
QD 10 mg/day
  DLT: Drug-induced liver injury
QD 10 mg/day, 6 DLT evaluable patients
  Number of patients who experienced a DLT: 1
QD 12 mg/day
  DLT: Platelet count decreased; also recorded: Urticaria
QD 12 mg/day, 3 DLT evaluable patients
  Number of patients who experienced a DLT: 2
QD 16 mg/day
  DLT: Urticaria; also recorded: Interstitial lung disease^a
QD 16 mg/day, 3 DLT evaluable patients
  Number of patients who experienced a DLT: 2
QD regimen
  patients who presented a DLT: Five
  maximum tolerated dose (MTD): 10 mg/day
Total, N = 134
  AST increased, ≥G3: 0 n
  Decreased appetite, ≥G3: 0 n
  Dry skin, ≥G3: 0 n
  Hypoalbuminemia, ≥G3: 0 n
  Malaise, ≥G3: 0 n
  Nausea, ≥G3: 0 n
  Pruritus, ≥G3: 0 n
  Stomatitis, ≥G3: 0 n
  WBC decreased, ≥G3: 0 n
All patients, during the study
  treatment-related deaths: No treatment-related deaths
